According to patent US20230295200A1 (REGENTS OF THE UNIVERSITY OF MICHIGAN, priority 2022, published 2023):

The compounds below were run against T1, STAT6 protein (Homo sapiens, UniProt P42226) (assay: Fluorescence polarization (FP) binding assay, STAT6). Conditions: FP competition, 5 nM fluorescein-labeled tracer, 200 nM protein, PBS pH7.4; read-out: Binding STAT6.
T1 sequence (P42226 1-847): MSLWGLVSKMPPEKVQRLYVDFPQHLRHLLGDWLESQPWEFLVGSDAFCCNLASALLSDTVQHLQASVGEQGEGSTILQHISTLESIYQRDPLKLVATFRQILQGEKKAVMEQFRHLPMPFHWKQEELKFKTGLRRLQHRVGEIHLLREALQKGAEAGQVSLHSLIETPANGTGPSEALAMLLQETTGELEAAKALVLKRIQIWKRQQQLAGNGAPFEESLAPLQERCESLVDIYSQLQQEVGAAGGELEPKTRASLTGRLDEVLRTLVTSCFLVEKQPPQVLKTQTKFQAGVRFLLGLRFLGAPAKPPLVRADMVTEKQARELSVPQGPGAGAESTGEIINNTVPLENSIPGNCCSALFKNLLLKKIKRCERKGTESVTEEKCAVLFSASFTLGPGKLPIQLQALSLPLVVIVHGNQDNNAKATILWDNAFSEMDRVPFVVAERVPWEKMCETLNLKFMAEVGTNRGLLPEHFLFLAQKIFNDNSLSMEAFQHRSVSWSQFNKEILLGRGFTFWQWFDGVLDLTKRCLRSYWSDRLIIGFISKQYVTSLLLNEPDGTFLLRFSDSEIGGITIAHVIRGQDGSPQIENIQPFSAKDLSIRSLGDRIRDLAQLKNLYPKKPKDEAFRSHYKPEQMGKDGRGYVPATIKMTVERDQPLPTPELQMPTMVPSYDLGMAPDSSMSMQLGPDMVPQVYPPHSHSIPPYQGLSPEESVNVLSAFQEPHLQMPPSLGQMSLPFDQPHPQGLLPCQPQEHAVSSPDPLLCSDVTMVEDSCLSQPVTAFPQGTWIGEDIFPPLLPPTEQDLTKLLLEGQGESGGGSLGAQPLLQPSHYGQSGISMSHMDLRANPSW
Procedure: Evaluation of the activity of the inhibitors may be accomplished by fluorescence polarization (FP) experiments. A representative general protocol is the following:
Fluorescence polarization (FP) experiments are performed in black round-bottom plates using the CLARIOstar microplate reader. To each well, fluorescein-labeled tracer and STAT5 or STAT6 protein are added in assay buffer. […] The inhibition constants are determined as the concentration of the STAT5 or STAT6 at which 50% of the ligand is bound.
Fluorescence polarization (FP) experiments were performed in 96-well, black round-bottom plates (Microfluor 2, Fisher Scientific) using the CLARIOstar microplate reader (BMG Labtech). To each well, 5 nM of fluoresceinlabeled tracer and 200 nM of STAT5 and/or STAT6 protein were added to a final volume of 100 μl in the assay buffer (PBS pH7.4+0.01% BGG+0.01% Tween-20, 2 mM DTT). The plate was mixed on a shaker for 15 m and incubated at room temperature for 1 h to reach equilibrium. […] All experimental data were analyzed using Prism 8.0 software (GraphPad Software), and the inhibition constants were determined by nonlinear curve fitting as the concentration of the STAT5 and/or STAT6 at which 50% of the ligand is bound.
Work on `CC(C)(C)[C@H](NC(=O)c1cc2cc(C(F)(F)P(=O)(O)O)ccc2s1)C(=O)N1Cc2ccccc2C[C@H]1C(=O)N1CCOC(C2CCCCC2)C1` (stereo partly drawn) [Compound 222, ((2-(((2S)-1-((3S)-3-(2-cyclohexylmorpholine-4-carbonyl)-3,4-dihydroisoquinolin-2(1H)-yl)-3,3-dimethyl-1-oxobutan-2-yl)carbamoyl)benzo[b]thiophen-5-yl)difluoromethyl)phosphonic acid] yielded a Ki of 0.1 to 1 µM. `CC(C)(C)[C@H](NC(=O)c1cc2cc(C(F)(F)P(=O)(O)O)ccc2s1)C(=O)N1Cc2ccccc2C[C@H]1C(=O)N1CCSC(c2ccccc2)C1` (stereo partly drawn) [Compound 223, ((2-(((2S)-3,3-dimethyl-1-oxo-1-((3S)-3-(2-phenylthiomorpholine-4-carbonyl)-3,4-dihydroisoquinolin-2(1H)-yl)butan-2-yl)carbamoyl)benzo[b]thiophen-5-yl)difluoromethyl)phosphonic acid] showed a Ki of under 0.1 µM. In the case of `CC(C)(C)[C@H](NC(=O)c1cc2cc(C(F)(F)P(=O)(O)O)ccc2s1)C(=O)N1Cc2ccccc2C[C@H]1C(=O)N1CCS(=O)(=O)[C@H](c2ccccc2)C1` [Compound 224, ((2-(((S)-1-((S)-3-((R)-1,1-dioxido-2-phenylthiomorpholine-4-carbonyl)-3,4-dihydroisoquinolin-2(1H)-yl)-3,3-dimethyl-1-oxobutan-2-yl)carbamoyl)benzo[b]thiophen-5-yl)difluoromethyl)phosphonic acid], the Ki is reported as under 0.1 µM. `CC(C)(C)[C@H](NC(=O)c1cc2cc(C(F)(F)P(=O)(O)O)ccc2s1)C(=O)N1Cc2ccccc2C[C@H]1C(=O)N1CCS(=O)(=O)[C@@H](c2ccccc2)C1` [Compound 225, ((2-(((S)-1-((S)-3-((S)-1,1-dioxido-2-phenylthiomorpholine-4-carbonyl)-3,4-dihydroisoquinolin-2(1H)-yl)-3,3-dimethyl-1-oxobutan-2-yl)carbamoyl)benzo[b]thiophen-5-yl)difluoromethyl)phosphonic acid] showed a Ki of 0.1 to 1 µM. Compound `CC1CN(C(=O)[C@@H]2Cc3ccccc3CN2C(=O)[C@@H](NC(=O)c2cc3cc(C(F)(F)P(=O)(O)O)ccc3s2)C(C)(C)C)CC(c2ccccc2)O1` (stereo partly drawn) [Compound 226, ((2-(((2S)-3,3-dimethyl-1-((3S)-3-(2-methyl-6-phenylmorpholine-4-carbonyl)-3,4-dihydroisoquinolin-2(1H)-yl)-1-oxobutan-2-yl)carbamoyl)benzo[b]thiophen-5-yl)difluoromethyl)phosphonic acid] has a Ki of 0.1 to 1 µM. `CC(C)(C)[C@H](NC(=O)c1cc2cc(C(F)(F)P(=O)(O)O)ccc2s1)C(=O)N1Cc2ccccc2C[C@H]1C(=O)N1CCOC(c2cccc3ccccc23)C1` (stereo partly drawn) [Compound 227, ((2-(((2S)-3,3-dimethyl-1-((3S)-3-(2-(naphthalen-1-yl)morpholine-4-carbonyl)-3,4-dihydroisoquinolin-2(1H)-yl)-1-oxobutan-2-yl)carbamoyl)benzo[b]thiophen-5-yl)difluoromethyl)phosphonic acid] was tested, and the Ki was 0.1 to 1 µM. Work on `Cc1ccccc1C1CN(C(=O)[C@@H]2Cc3ccccc3CN2C(=O)[C@@H](NC(=O)c2cc3cc(C(F)(F)P(=O)(O)O)ccc3s2)C(C)(C)C)CCO1` (stereo partly drawn) [Compound 228, ((2-(((2S)-3,3-dimethyl-1-oxo-1-((3S)-3-(2-(o-tolyl)morpholine-4-carbonyl)-3,4-dihydroisoquinolin-2(1H)-yl)butan-2-yl)carbamoyl)benzo[b]thiophen-5-yl)difluoromethyl)phosphonic acid] yielded a Ki of 0.1 to 1 µM. `Cc1ccc(C2CN(C(=O)[C@@H]3Cc4ccccc4CN3C(=O)[C@@H](NC(=O)c3cc4cc(C(F)(F)P(=O)(O)O)ccc4s3)C(C)(C)C)CCO2)c(C)c1` (stereo partly drawn) [Compound 229, ((2-(((2S)-1-((3S)-3-(2-(2,4-dimethylphenyl)morpholine-4-carbonyl)-3,4-dihydroisoquinolin-2(1H)-yl)-3,3-dimethyl-1-oxobutan-2-yl)carbamoyl)benzo[b]thiophen-5-yl)difluoromethyl)phosphonic acid] gave a Ki of 1 to 10 µM. Compound `CC(C)(C)[C@H](NC(=O)c1cc2cc(C(F)(F)P(=O)(O)O)ccc2s1)C(=O)N1Cc2ccccc2C[C@H]1C(=O)N1CCOC(c2ccccc2F)C1` (stereo partly drawn) [Compound 230, (difluoro(2-(((2S)-1-((3S)-3-(2-(2-fluorophenyl)morpholine-4-carbonyl)-3,4-dihydroisoquinolin-2(1H)-yl)-3,3-dimethyl-1-oxobutan-2-yl)carbamoyl)benzo[b]thiophen-5-yl)methyl)phosphonic acid] has a Ki of 0.1 to 1 µM. `CC(C)(C)[C@H](NC(=O)c1cc2cc(C(F)(F)P(=O)(O)O)ccc2s1)C(=O)N1Cc2ccccc2C[C@H]1C(=O)N1CCOC(c2ccc(F)cc2)C1` (stereo partly drawn) [Compound 231, (difluoro(2-(((2S)-1-((3S)-3-(2-(4-fluorophenyl)morpholine-4-carbonyl)-3,4-dihydroisoquinolin-2(1H)-yl)-3,3-dimethyl-1-oxobutan-2-yl)carbamoyl)benzo[b]thiophen-5-yl)methyl)phosphonic acid] gave a Ki of 0.1 to 1 µM. Work on `CC(C)(C)[C@H](NC(=O)c1cc2cc(C(F)(F)P(=O)(O)O)ccc2s1)C(=O)N1Cc2ccccc2C[C@H]1C(=O)N1CCOC(c2ccccc2Cl)C1` (stereo partly drawn) [Compound 232, ((2-(((2S)-1-((3S)-3-(2-(2-chlorophenyl)morpholine-4-carbonyl)-3,4-dihydroisoquinolin-2(1H)-yl)-3,3-dimethyl-1-oxobutan-2-yl)carbamoyl)benzo[b]thiophen-5-yl)difluoromethyl)phosphonic acid] yielded a Ki of 0.1 to 1 µM. In the case of `CC(C)(C)[C@H](NC(=O)c1cc2cc(C(F)(F)P(=O)(O)O)ccc2s1)C(=O)N1Cc2ccccc2C[C@H]1C(=O)N1CCOC(c2cccc(Cl)c2)C1` (stereo partly drawn) [Compound 233, ((2-(((2S)-1-((3S)-3-(2-(3-chlorophenyl)morpholine-4-carbonyl)-3,4-dihydroisoquinolin-2(1H)-yl)-3,3-dimethyl-1-oxobutan-2-yl)carbamoyl)benzo[b]thiophen-5-yl)difluoromethyl)phosphonic acid], the Ki is reported as under 0.1 µM. `CC(C)(C)[C@H](NC(=O)c1cc2cc(C(F)(F)P(=O)(O)O)ccc2s1)C(=O)N1Cc2ccccc2C[C@H]1C(=O)N1CCOC(c2ccc(Cl)cc2)C1` (stereo partly drawn) [Compound 234, ((2-(((2S)-1-((3S)-3-(2-(4-chlorophenyl)morpholine-4-carbonyl)-3,4-dihydroisoquinolin-2(1H)-yl)-3,3-dimethyl-1-oxobutan-2-yl)carbamoyl)benzo[b]thiophen-5-yl)difluoromethyl)phosphonic acid] showed a Ki of 0.1 to 1 µM. Compound `CC1(c2ccc(Cl)cc2)CN(C(=O)[C@@H]2Cc3ccccc3CN2C(=O)[C@@H](NC(=O)c2cc3cc(C(F)(F)P(=O)(O)O)ccc3s2)C(C)(C)C)CCO1` (stereo partly drawn) [Compound 235, ((2-(((2S)-1-((3S)-3-(2-(4-chlorophenyl)-2-methylmorpholine-4-carbonyl)-3,4-dihydroisoquinolin-2(1H)-yl)-3,3-dimethyl-1-oxobutan-2-yl)carbamoyl)benzo[b]thiophen-5-yl)difluoromethyl)phosphonic acid] has a Ki of 1 to 10 µM. With `CC1(c2ccc(F)cc2)CN(C(=O)[C@@H]2Cc3ccccc3CN2C(=O)[C@@H](NC(=O)c2cc3cc(C(F)(F)P(=O)(O)O)ccc3s2)C(C)(C)C)CCO1` (stereo partly drawn) [Compound 236, (difluoro(2-(((2S)-1-((3S)-3-(2-(4-fluorophenyl)-2-methylmorpholine-4-carbonyl)-3,4-dihydroisoquinolin-2(1H)-yl)-3,3-dimethyl-1-oxobutan-2-yl)carbamoyl)benzo[b]thiophen-5-yl)methyl)phosphonic acid] the Ki was 1 to 10 µM.
